According to patent publication US5756517A, “Use of bisquinoline compounds in the treatment of cerebral disorders” (Bayer Aktiengesellschaft, priority 1996, dated 1998):

Key:
[1] = target: apamin binding sites / apamin receptors (apamin-sensitive potassium channels), calves' cerebral membrane; experiment: Binding of 125I-apamin to calves' cerebral membrane; conditions: displacement of 125I-apamin (30 pM), calf hippocampus membranes, 60 min on ice
Description: 1) Binding of ^125 I-apamin to calves' cerebral membrane
Calf brains were obtained from the local abattoir. The hippocampus was prepared on ice and a membrane suspension was made up by homogenization twice in buffer (100 mM Tris-HCl, KCl 5 mM, pH 7.4) and centrifugation at 43,000×g. In a total volume of 500 μl, the incubation mixture contained 200 μg of membrane protein, 30 pM ^125 I-apamin and test substances in the concentration range 1×10^-9 to 1×10^-4 M. The non-specific binding of ^125 I-apamin was determined in the presence of 1×10^-7 M unlabeled apamin.
After preincubation for 30 min at room temperature (test substances and membrane homogenate), the samples were placed on ice for 10 min before the radioligand was added. The main incubation time was 60 min on ice. When the reaction time had elapsed, an excess of ice-cooled incubation buffer was added to each sample and the mixture was filtered with suction through cellulose acetate/nitrate membrane filters. The amount of bound ^125 I-apamin was measured with a gamma counter.

[2] = system: apamine-sensitive potassium channels in PC12 cells; experiment: Non-radioactive Rb+ efflux assay for the identification of potassium channel modulators (PC12 cells); format: cell-based; conditions: Rattus norvegicus, PC-12, 10 min, 10 min stimulation with 50 mM KCl, read-out: % inhibition of the Rb efflux at a test concentration of 10 μM
Description: 2) Non-radioactive Rb^+ efflux assay for the identification of potassium channel modulators
The cellular potassium in PC12 cells is exchanged with rubidium, which is not present in the cells. This exchange is performed by incubating the cells over a period of 4 h in a physiological buffer containing 5.4 mM RbCl without KCl. This rubidium subsequently serves as a tracer for potassium. The cells laden with Rb^+ in this way are washed three times and then stimulated by depolarization with 50 mM KCl to open potassium channels (10 min), causing Rb^+ to flow out of the cells into the supernatant according to the concentration gradient.
The rubidium contents in the cell supernatant and in the residual cells after they have been lyzed with 1% Triton X-100 are then. determined by means of atomic absorption spectroscopy. The relative proportion of rubidium in the cell supernatant (=Rb^+ efflux) is used as a measure of the potassium channel activity.
The effect of substances on the channel activity is measured by co-incubating the test substance over the ten-minute stimulation period and determining its effect on the Rb^+ efflux in the manner described above.

Compound | Ki [1] [nM] | inhibition at 10 µM [2] [%]
Cc1cc(NCCC(O)CCNc2cc(C)nc3ccccc23)c2ccccc2n1 [Example 14] | 190 | 
Cc1cc(NCC(O)CNc2cc(C)nc3ccccc23)c2ccccc2n1 [Example 15] |  | 73
